Data from patent publication US20260070924A1, “INDAZOLE MACROCYCLES AND THEIR USE” (BLOSSOMHILL THERAPEUTICS, INC., priority 2022, published 2026).
pIC50: −log10 of the molar value.

How the values were obtained:
Type in all cases: cell-based
BCLxS/xL = test: Alternative splicing ratio by qPCR in MOLM-13; settings: DMSO = 1.00
Experimental: Alternative splicing ratio of RNA transcripts was measured by qPCR in MV-4-11 and MOLM-13 cell lines. Cells were plated in 24 well plates at 1 million cells per well and then treated with compounds at different concentrations, with DMSO only as control. After 8-hour-incubation, cells were harvested and washed once with ice-cold PBS, and lysed in RNA lysis buffer (Invitrogen). Total RNA was extracted using the RNA Purification Kit (Invitrogen). 2 μg of RNA was used for cDNA synthesis using cDNA synthesis kit (ThermoFisher) and 20 ng of cDNA was used for qPCR using PROFLEX 96-Well PCR System (ThermoFisher).
• BCLxS/xL (SYBR Green, IDT)

MV-4-11 cells = test: MV-4-11 cell proliferation assay (CellTiter-Glo 2.0); settings: MV-4-11, 384-well, 11-dose dilution series; read-out: IC50, inhibition of MV-4-11 cell proliferation
Experimental: MV-4-11 cell line was purchased from ATCC and maintained in RPMI medium supplemented with 10% fetal bovine serum and 100 U/mL of penicillin/streptomycin. One thousand MV-4-11 cells/50 μl per well were seeded in white 384-well plate, followed by treatment with indicated compounds in a 11-dose dilution series. Cell proliferation was measured using CellTiter-Glo 2.0 luciferase-based ATP detection assay (Promega, Madison, WI) following the manufacturer's protocol. Plates were then read on a TECAN Sparks multimode microplate reader. Data was analyzed using GraphPad Prism 9 (GraphPad Software, San Diego, CA) to obtain IC50 values.

phospho-FLT3 (Y589/Y591) = phospho-FLT3 (Y589/Y591) (Homo sapiens (Human), UniProt P36888, INS600HVDFREYEYD); test: Inhibition of kinase phosphorylation by Western Blot in MV-4-11; settings: MV-4-11 cells, 4 hour-incubation; read-out: pFLT3 MV-4-11 IC50
Chain of phospho-FLT3 (Y589/Y591) (P36888 whole entry, looked up, stated change not applied): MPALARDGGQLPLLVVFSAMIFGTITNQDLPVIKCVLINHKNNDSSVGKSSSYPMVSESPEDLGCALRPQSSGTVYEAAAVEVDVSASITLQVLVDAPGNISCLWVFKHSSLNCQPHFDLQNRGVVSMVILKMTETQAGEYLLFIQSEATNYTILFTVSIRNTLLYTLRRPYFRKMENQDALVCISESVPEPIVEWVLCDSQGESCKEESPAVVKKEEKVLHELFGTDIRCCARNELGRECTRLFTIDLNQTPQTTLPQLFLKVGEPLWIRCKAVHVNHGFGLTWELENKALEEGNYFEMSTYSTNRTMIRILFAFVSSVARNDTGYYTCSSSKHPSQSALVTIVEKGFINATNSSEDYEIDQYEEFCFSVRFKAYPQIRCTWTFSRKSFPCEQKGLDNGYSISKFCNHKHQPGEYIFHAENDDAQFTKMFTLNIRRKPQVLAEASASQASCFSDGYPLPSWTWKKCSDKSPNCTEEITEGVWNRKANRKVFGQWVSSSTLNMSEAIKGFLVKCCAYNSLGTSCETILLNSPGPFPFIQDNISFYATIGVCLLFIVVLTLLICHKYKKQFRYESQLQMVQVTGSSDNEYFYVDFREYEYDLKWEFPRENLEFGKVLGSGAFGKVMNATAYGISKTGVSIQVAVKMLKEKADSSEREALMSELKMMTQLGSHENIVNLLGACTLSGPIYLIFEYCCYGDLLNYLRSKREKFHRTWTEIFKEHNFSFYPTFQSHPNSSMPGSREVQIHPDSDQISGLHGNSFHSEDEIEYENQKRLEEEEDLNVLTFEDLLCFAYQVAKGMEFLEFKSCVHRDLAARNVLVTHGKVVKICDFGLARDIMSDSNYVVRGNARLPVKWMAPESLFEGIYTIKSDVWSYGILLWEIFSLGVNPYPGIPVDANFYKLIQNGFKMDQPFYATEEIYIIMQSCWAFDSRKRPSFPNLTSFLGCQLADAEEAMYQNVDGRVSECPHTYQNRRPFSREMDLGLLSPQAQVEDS

SKOV3 = test: Cell proliferation panel (CellTiter-Glo 2.0, 5 days); settings: Ovarian adenocarcinoma
Experimental: (§1) Cell proliferation assay was carried out in a panel of 108 cell lines. 1000 (attached cells) or 3000 (suspension cells) cells/100 μl per well were seeded in 96 well black plate with a clear bottom (Corning #3904). Compounds were added using Tecan D300e Digital Dispenser in 1:3 titration for 9 doses. Plates were incubated for 5 days at 37° C. and 5% CO2. Cell proliferation was measured using CellTiter-Glo 2.0 luciferase-based ATP detection assay (Promega, Madison, WI) at 50 μl per well following the manufacturer's protocol. Plates were then read on a TECAN Sparks multimode microplate reader. Data was analyzed using GraphPad Prism 9 (GraphPad Software, San Diego, CA) to obtain IC50 values. IC50 values were determined using Prism software (GraphPad Software, San Diego, CA).

KCL22S = test: as above; settings: Chronic myeloid leukemia at blast crisis
Experimental: as §1

CT26 = test: as above; settings: Murine colon carcinoma fibroblasts
Experimental: as §1

HCC827 = test: as above; settings: Lung adenocarcinoma NSCLC
Experimental: as §1

IMR-32 = test: as above; settings: Neuroblastoma
Experimental: as §1

PANC1 = test: as above; settings: Pancreatic ductal epithelioid carcinoma
Experimental: as §1

H1573 = test: as above; settings: Lung adenocarcinoma NSCLC
Experimental: as §1

MC38 = test: as above; settings: Murine colon adenocarcinoma
Experimental: as §1

AGS = test: as above; settings: Gastric adenocarcinoma
Experimental: as §1

SNU-16 = test: as above; settings: Gastric carcinoma
Experimental: as §1

LS513 = test: as above; settings: Colorectal carcinoma
Experimental: as §1

786-O = test: as above; settings: Renal cell adenocarcinoma
Experimental: as §1

MOLM13 = test: as above; settings: Acute myeloid leukemia
Experimental: as §1

T47D = test: as above; settings: Mammary gland ductal carcinoma
Experimental: as §1

N87 = test: as above; settings: Gastric carcinoma
Experimental: as §1

HCC1569 = test: as above; settings: Mammary gland metaplastic carcinoma
Experimental: as §1

769-P = test: as above; settings: Renal cell adenocarcinoma
Experimental: as §1

A-498 = test: as above; settings: Kidney carcinoma
Experimental: as §1

MOLM14 = test: as above; settings: Acute myeloid leukemia
Experimental: as §1

pIC50 (MV-4-11 cells): 9.52
pIC50 (phospho-FLT3 (Y589/Y591)): 9.80
pIC50 (SKOV3): 6.93
pIC50 (HCC827): 7.15
pIC50 (PANC1): 6.67
pIC50 (H1573): 7.09
pIC50 (AGS): 7.06
pIC50 (SNU-16): 7.04
pIC50 (786-O): 6.86
pIC50 (MOLM13): 8.62
pIC50 (T47D): 6.94
pIC50 (HCC1569): 6.82
pIC50 (MOLM14): 8.65
Structure (SMILES): CCc1nn(C)c2c1/C=C/c1n[nH]c3ccc(cc13)-c1cnn(C)c1OCCN(C)C2=O [Ex. 6, (17E)-16-ethyl-8,12,14-trimethyl-2,11,12,14-tetrahydro-8H-3,5-ethenotripyrazolo[3,4-f:3′,4′-j:4″,3″-n][1,4]oxazacyclopentadecin-13(10H)-one]
Alternative Splicing Ratio BCL-xS/xL (BCLxS/xL; MOLM-13, 30 nM): 1.51
Alternative Splicing Ratio BCL-xS/xL (BCLxS/xL; MOLM-13, 100 nM): 3.54
Alternative Splicing Ratio BCL-xS/xL (BCLxS/xL; MOLM-13, 300 nM): 4.20
pIC50 (KCL22S): 7.21
pIC50 (CT26): 6.67
pIC50 (IMR-32): 7.95
pIC50 (MC38): 6.66
pIC50 (LS513): 7.52
pIC50 (N87): 7.68
pIC50 (769-P): 7.04
pIC50 (A-498): 6.77
